Common to all, as to format: cell-based
One assay concerns Carnaval cells. Nature of the assay: ATPLite anti-proliferation assay (GI) and synergy score, 120 h. The procedure: (§1) The endpoint readout of the anti-proliferation assay was based upon quantitation of ATP as an indicator of viable cells. Cells were thawed from a liquid nitrogen preserved state. Once cells had been expanded and divided at their expected doubling times, screening began. Cells were seeded in growth media in black 384-well tissue culture treated plates at 500 cells per well (except where noted in Analyzer). Cells were equilibrated in assay plates via centrifugation and placed in incubators attached to the Dosing Modules at 37° C. for twenty-four hours before treatment. […] These Tzero (T0) plates were read using ultra-sensitive luminescence on Envision Plate Readers. Treated assay plates were incubated with the compound for one hundred twenty hours. After one hundred twenty hours, plates were developed for endpoint analysis using ATPLite. All data points were collected via automated processes; quality controlled; and analyzed using Horizon CombinatoRx proprietary software. Assay plates were accepted if they pass the following quality control standards: relative luciferase values were consistent throughout the entire experiment, Z-factor scores were greater than 0.6, untreated/vehicle controls behaved consistently on the plate.
(§2) Horizon Discovery utilized Growth Inhibition (GI) as a measure of cell viability. The cell viability of vehicle was measured at the time of dosing (T0) and after one hundred twenty hours (T120). A GI reading of 0% represented no growth inhibition—cells treated with compound and T120 vehicle signals were matched. […] A GI 200% represents complete death of all cells in the culture well. Compounds reaching an activity plateau of GI 200% were considered cytotoxic. Horizon CombinatoRx calculates GI by applying the following test and equation: […]
(§3) To measure combination effects in excess of Loewe additivity, Horizon Discovery has devised a scalar measure to characterize the strength of synergistic interaction termed the Synergy Score. The Synergy Score was calculated as:
(§4) Synergy Score=log fx log fyΣmax(0,Idata)(Idata−ILoewe)
(§5) The fractional inhibition for each component agent and combination point in the matrix was calculated relative to the median of all vehicle-treated control wells. The Synergy Score equation integrated the experimentally-observed activity volume at each point in the matrix in excess of a model surface numerically derived from the activity of the component agents using the Loewe model for additivity. Additional terms in the Synergy Score equation (above) were used to normalize for various dilution factors used for individual agents and to allow for comparison of synergy scores across an entire experiment. The inclusion of positive inhibition gating or an Idata multiplier removed noise near the zero effect level, and biased results for synergistic interactions at that occur at high activity levels.
(§6) The cell viability of vehicle was measured at the time of dosing (T0) and after 120 h (T120). […] To measure combination effects, excess of Loewe additivity was used to characterize the strength of synergistic interaction, termed the synergy score. The assay and synergy score analysis were performed in accordance with the protocol set forth in Example 1B above.
(§7) The assay and synergy score analysis were performed in accordance with the protocol set forth in Example 3A above.

In the next assay the test system is HBL-1 cells. Described as above. The procedure:
as §1, §2, §3, §4, §5, §6, §7

Another assay has as its system OCI-Ly3 cells. The description is as above. The protocol: as §1, §2, §3, §4, §5, §6, §7
Another assay deals with OCI-Ly4 cells. The assay is described as above. The procedure: as §1, §2, §3, §4, §5, §6, §7
The next assay concerns Pfeiffer cells. The assay is described as above. The protocol:
as §1, §2, §3, §4, §5, §6, §7

The next assay concerns Ri-1 cells. The description is as above. The protocol: as §1, §2, §3, §4, §5, §6, §7
Another assay has as its system SU-DHL-10 cells. The description is as above. The protocol:
as §1, §2, §3, §4, §5, §6, §7

The subject of another assay is SU-DHL-2 cells. Described as above. The procedure:
as §1, §2, §3, §4, §5, §6, §7

The next assay concerns SU-DHL-6 cells. The assay is described as above. The procedure:
as §1, §2, §3, §4, §5, §6, §7

The test system of a further assay is SU-DHL-8 cells. The description is as above. The protocol: as §1, §2, §3, §4, §5, §6, §7
In a further assay the test system is TMD-8 cells. The description is as above. The protocol:
as §1, §2, §3, §4, §5, §6, §7

Another assay relates to U2973 cells. Described as above. The protocol:
as §1, §2, §3, §4, §5, §6, §7

The subject of another assay is pAKT (Ser 473). Nature of the assay: TMD-8 Western Blots. The note with it: for pAKT (Ser 473), Western Blot: TMD-8. The protocol: (§8) Western Blot samples were prepared by lysing 10^6 cells for 30 minutes in 150 μL ice-cold lysis buffer. Protease Inhibitor Cocktail (Roche Diagnostics Corp), and phosphatase inhibitor sets 1 and 2 (EMD Millipore) were also added to the lysis buffer (Cell Signaling Technology). Cells were centrifuged at 12.5 g for 10 minutes at 4° C.; supernatant was collected and transferred to new tube. Sample buffer was added to each lysate, and then boiled at 99° C. for 5 minutes. Protein was loaded into an SDS-PAGE gel and run for 2 h at 125V. After electrophoresis, gel was transferred to Immobilon-F membrane using the X Cell Blot. The membrane was then blocked for 1 h at room temperature in blocking buffer and incubated overnight with primary antibodies diluted in a blocking buffer. The following day, the membranes were washed 3× (5 min each) with TBST; secondary antibodies were added and membrane was incubated for 45 minutes at room temperature, followed by 3×TBST (5 min each). Blots were read using Licor Imager. Primary antibodies included p-AKT (S473), p-BTK (Y223), BTK, p-ERK (T202/Y204), ERK, and actin (Cell Signaling Technologies), and secondary antibodies included IRDye-conjugated anti-mouse and anti-rabbit antibodies; LI-COR. Band intensity was measured using LI-COR imager and LI-COR Odyssey software.

In a further assay the test system is pBTK (Y223). Nature of the assay: TMD-8 Western Blots. The note with it: for pBTK (Y223), Western Blot: TMD-8. The protocol:
as §8

A further assay concerns pErk1/2 (T202/Y204). Nature of the assay: TMD-8 Western Blots. The conditions noted are these: for pErk1/2 (T202/Y204), Western Blot: TMD-8. The procedure:
as §8

The next assay has as its system pERK T202/Y204. Kind of assay: Western Blot of TMD-8 Ibrutinib resistant lines. The conditions noted are these: idelalisib 420 nM, Compound B 320 nM. The protocol: as §8
Total protein expression levels and phosphorylation of PI3K, MAPK, BTK and NF-κB components were determined by Western Blot or Peggy Sue. Cells were treated with idelalisib (420 nM), Compound B (320 nM) or in combination. Protein expression level and phosphoproteomics were determined using Western Blot (p-ERK 1/2, p-AKT S473, total AKT) and Peggy Sue (p-BTK, p-IκBα S32, total IκBα), using procedures as described in Example 3B. Results were quantitated after determining the AUC for each group and normalized to DMSO vehicle control.

[1] abbreviates: Homo sapiens, TMD8, FIG. 2E, single agent, idelalisib 420 nM, Compound B 320 nM, time not stated, read-out: inhibition to p-AKT (S473).
Setting [2] is: Homo sapiens, TMD8, FIG. 2E, single agent, idelalisib 420 nM, Compound B 320 nM, time not stated, read-out: inhibition to p-ERK (T202/Y204).
The mark [3] stands for this setting: A20-Q143* line, normalized to DMSO control, DMSO 0.91.
[4] abbreviates: control line, normalized to DMSO vehicle control.

As to `CC#CC(=O)N1CC[C@@H](n2c(=O)n(-c3ccc(Oc4ccccc4)cc3)c3c(N)ncnc32)C1` [Compound B, 6-amino-9-[(3R)-1-(2-butynoyl)-3-pyrrolidinyl]-7-(4-phenoxyphenyl)-7,9-dihydro-8H-purin-8-one], the “Max. Effect (% GI)” value in the assay on Carnaval cells turned out to be 0 % GI; in the assay on HBL-1 cells, 65 % GI; in the assay on OCI-Ly3 cells it was 0 % GI; in the assay on OCI-Ly4 cells it was 25 % GI; in the assay on Pfeiffer cells it was 8 % GI; in the assay with Ri-1 cells, 48 % GI. In addition, the “Max. Effect (% GI)” value in the assay on SU-DHL-10 cells was 0 % GI; in the assay with SU-DHL-2 cells it was 18 % GI; with SU-DHL-6 cells it was 24 % GI; in the assay on SU-DHL-8 cells, 1 % GI; with TMD-8 cells it was 98 % GI; with U2973 cells it was 14 % GI. The inhibition at 0.32 µM in the assay on pAKT (Ser 473) (setting [1]) came out at 46%; with pBTK (Y223) (Homo sapiens, TMD8, FIG. 2E, single agent, Compound B 320 nM, time not stated, read-out: inhibition of p-BTK (Y223)), 59%; in the assay on pErk1/2 (T202/Y204) (setting [2]), 48%. Also, the “pAKT (Ser 473), Western Blot” value with pAKT (Ser 473) (2 hr, DMSO 0.45) was 0.24 normalized integrated intensity; in the assay with pAKT (Ser 473) (24 hr, DMSO 0.54), 0.35 normalized integrated intensity. In addition, the “pBTK (Y223), Western Blot” value with pBTK (Y223) (2 hr, DMSO 0.36) was 0.16 normalized integrated intensity; with pBTK (Y223) (24 hr, DMSO 0.33), 0.14 normalized integrated intensity. For the same compound, the “pErk1/2 (T202/Y204), Western Blot” value in the assay on pErk1/2 (T202/Y204) (2 hr, DMSO 1.09) is 0.47 normalized integrated intensity; with pErk1/2 (T202/Y204) (24 hr, DMSO 1.49) it was 0.93 normalized integrated intensity. The “pERK T202/Y204” value with pERK T202/Y204 (setting [3]) worked out at 0.76; in the assay with pERK T202/Y204 (setting [4]), 0.35.

For `CCC(Nc1ncnc2[nH]cnc12)c1nc2cccc(F)c2c(=O)n1-c1ccccc1` (stereo not drawn) [Idelalisib, 2-(1-((9H-Purin-6-yl)amino)propyl)-5-fluoro-3-phenylquinazolin-4(3H)-one], the “Max. Effect (% GI)” value with Carnaval cells is given as 62 % GI; in the assay on HBL-1 cells it was 29 % GI; with OCI-Ly3 cells it was 20 % GI; in the assay with OCI-Ly4 cells it was 194 % GI; in the assay with Pfeiffer cells, 33 % GI; in the assay on Ri-1 cells it was 78 % GI. In addition, the “Max. Effect (% GI)” value turned out to be 0 % GI in the assay with SU-DHL-10 cells; 8 % GI in the assay with SU-DHL-2 cells; 110 % GI in the assay with SU-DHL-6 cells; 43 % GI with SU-DHL-8 cells; 155 % GI with TMD-8 cells; 85 % GI in the assay with U2973 cells. Further, the inhibition at 0.42 µM in the assay on pAKT (Ser 473) (setting [1]) is 58%; in the assay on pErk1/2 (T202/Y204) (setting [2]), 71%. For the same compound, the “pAKT (Ser 473), Western Blot” value with pAKT (Ser 473) (2 hr, DMSO 0.45) is reported as 0.19 normalized integrated intensity; with pAKT (Ser 473) (24 hr, DMSO 0.54) it was 0.12 normalized integrated intensity. Further, the “pBTK (Y223), Western Blot” value is 0.39 normalized integrated intensity with pBTK (Y223) (2 hr, DMSO 0.36) and 0.27 normalized integrated intensity in the assay on pBTK (Y223) (24 hr, DMSO 0.33). The “pErk1/2 (T202/Y204), Western Blot” value with pErk1/2 (T202/Y204) (2 hr, DMSO 1.09) is recorded as 0.40 normalized integrated intensity; in the assay on pErk1/2 (T202/Y204) (24 hr, DMSO 1.49) it was 0.55 normalized integrated intensity. The figures for the “pERK T202/Y204” value with pERK T202/Y204 (setting [3]) and in the assay with pERK T202/Y204 (setting [4]) were 0.73 and 0.13, respectively.

The values are drawn from US20180353512A1, “COMBINATION THERAPIES FOR TREATING B-CELL MALIGNANCIES” (GILEAD SCIENCES, INC., priority 2015, published 2018).
